{"source": "patent US20140088144A1", "about": "“INHIBITING MICROBIAL INFECTIONS” (THE UNIVERSITY OF KANSAS, priority 2012, published 2014)", "key": {"LacI": {"molecular_target": "T1, LacI (Escherichia coli, UniProt P03023)", "T1 construct": "made in house; host or cells: E. coli", "T1 sequence (P03023 whole entry)": "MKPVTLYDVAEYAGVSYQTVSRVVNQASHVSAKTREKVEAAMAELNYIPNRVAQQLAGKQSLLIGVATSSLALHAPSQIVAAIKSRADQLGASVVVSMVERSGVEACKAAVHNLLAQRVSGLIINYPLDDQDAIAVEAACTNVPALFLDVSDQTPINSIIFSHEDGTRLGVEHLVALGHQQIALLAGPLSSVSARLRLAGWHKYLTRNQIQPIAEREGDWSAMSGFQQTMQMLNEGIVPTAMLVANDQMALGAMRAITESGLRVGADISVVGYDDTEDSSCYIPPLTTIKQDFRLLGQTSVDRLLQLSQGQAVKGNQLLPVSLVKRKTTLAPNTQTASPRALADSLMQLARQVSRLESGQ", "test": "EMSA in vitro DNA binding by LacI", "type": "biochemical, E. coli", "conditions": "highest concentrations (dilutions starting at 650 μM)", "excerpt": "All proteins for this study were expressed in E. coli. Untagged CRP was purified by Ni^2+-affinity chromatography as described. Lad protein was purified by ammonium sulfate precipitation and phosphocellulose column chromatography as described. RhaS-GB1^201b and GB1^b-RhaR were purified by Ni^2+-affinity chromatography. Briefly, plasmids derived from pET21 and expressing RhaS-GB1^201b and GB1^b-RhaR were transformed into competent cells of strains Acella™ (MoBiTec, Gottingen, Germany) or ArcticExpress(DE3) (Agilent Technologies, Santa Clara Calif.), respectively. The cells were grown in 1 liter TY plus ampicillin and rhamnose. Gentamycin was also added for GB1^b-RhaR. The cells were grown to OD600 of 0.5, transferred to a 15° C. shaker, 0.1 mM IPTG was added, and then incubated overnight. Cells were harvested by centrifugation and then resuspended in 30 mL of cold binding buffer (20 mM Tris, 500 mM NaCl, 5 mM imidazole, pH 7.9) plus L-rhamnose. […]\nIRD700- and DY682-labeled oligos were from Eurofins MWG Operon. […] EMSA gels were imaged using an Odyssey infrared imager (LI-COR, Lincoln, Nebr.), and quantified using the Odyssey software, version 3.0.30. […] Inhibition values were calculated and graphs were drawn as for in vivo dose-response experiments."}, "rrsA": {"test_system": "rrsA", "test": "Shigella gene expression qRT-PCR, internal control rrsA", "type": "cell-based, S. flexneri", "conditions": "for Average ΔΔCt / Ct / RQ (2^−ΔΔCt) / ΔΔCt^1 (normalized to gapA): rrsA, example data", "experimental": "Real-time quantitative reverse transcription PCR (qRT-PCR) was performed to test the effects of SE-1 on the expression of the VirF regulated genes virB, icsA, icsB and ipaB. The gapA and rrsA transcripts were used as internal controls. These are constitutively expressed Shigella genes commonly used to normalize mRNA levels. S. flexneri strain SME4331, which carries a null mutation in ipgD (ipgD), was grown at 30° C. overnight in TSB with ampicillin, diluted into the same medium to an OD600 of ˜0.1, and 1 ml aliquots further grown at 30° C. (DMSO only) or at 37° C. (SE-1 at 20 or 40 μM, or DMSO only, all 0.3% DMSO). Cells were grown to an OD600 of 1.0 (˜2.5 h) and RNA was isolated using an RNeasy MiniElute Cleanup Kit (Qiagen, Germantown, Md.), with DNA contamination eliminated using a Turbo DNase Kit (Ambion, Austin, Tex.). Complementary DNA (cDNA) was synthesized by random priming using a cDNA Reverse Transcription Kit (Applied Biosystems, Foster City, Calif.). Primers were tested for PCR specificity using genomic DNA template to ensure a single amplicon of the expected size for each primer pair, and validated using 5-fold dilutions of cDNA (2000 to 0.0256 ng) to ensure a linear plot of cycle threshold (Ct) versus cDNA concentration. Validated primer sets were used to test mRNA profiles in reactions that contained 10 ng of cDNA, 10 μl of SYBR green master mix (Applied Biosystems), specific primers (0.5 μM each) and water to a final volume of 20 μl, using a Step One Plus Real-Time PCR System (Applied Biosystems). The data was analyzed using the 2^−ΔΔCt method, and also by Applied Biosystems real-time analysis software. […] In brief, ΔΔCt values [ΔΔCt=(Ct,Target−Ct,Internal Control)SE-1−(Ct,Target−Ct,Internal Control)no SE-1] were separately obtained for each sample relative to two internal controls, gapA and rrsA. The ΔΔCt values relative to the two internal controls for each sample were averaged and then used to calculate the relative expression levels (2^−ΔΔCt). As a control, we also normalized each internal control to the other internal control. Control reactions used templates generated without reverse transcriptase to ensure low genomic DNA contamination. To ensure that products were not likely to be due to primer dimer artifacts, additional control samples were performed in which reaction mixtures contained primers alone (no template)."}}}
{"compound": "CCCCN1C=C(c2ccc3ccccc3n2)C(C[N+](=O)[O-])c2ccccc21", "note": "(stereo not shown) [Compound 1, 1-butyl-4-(nitromethyl)-3-quinolin-2-yl-4H-quinoline]", "values": [{"measurement": "LacI DNA binding retained", "setting": "LacI", "value": "approximately 70%"}, {"measurement": "expression of control gene rrsA", "setting": "rrsA; 40 μM SE-1, normalized to gapA", "value": "no decrease"}, {"measurement": "Average ΔΔCt", "setting": "rrsA; SE-1 20 μM", "value": "−1.0"}, {"measurement": "Ct", "setting": "rrsA; SE-1 20 μM", "value": 18.55}, {"measurement": "RQ (2^−ΔΔCt)", "setting": "rrsA; SE-1 20 μM", "value": 2}, {"measurement": "ΔΔCt^1 (normalized to gapA)", "setting": "rrsA; SE-1 20 μM", "value": "−1.0"}, {"measurement": "Average ΔΔCt", "setting": "rrsA; SE-1 40 μM", "value": 0.69}, {"measurement": "Ct", "setting": "rrsA; SE-1 40 μM", "value": 18.29}, {"measurement": "RQ (2^−ΔΔCt)", "setting": "rrsA; SE-1 40 μM", "value": 1.62}, {"measurement": "ΔΔCt^1 (normalized to gapA)", "setting": "rrsA; SE-1 40 μM", "value": 0.69}]}
